Data from US20050182040A1, “Benzamide derivatives” (priority 2002, published 2005).

Tested on: not given
Test: not given
Conditions: not given

Row | melting point | SMILES
1 | 180 to 183 °C | COc1cc(NCc2ccncc2)ccc1C(N)=O [Example 128, 2-Methoxy-4-[(pyridin-4-ylmethyl)amino]-benzamide]
2 | 155 to 157 °C | COc1cc(NC2CCN(Cc3ccccc3)CC2)ccc1C(N)=O [Example 28, 4-[(1-benzylpiperidin-4-yl)amino]-2-methoxybenzamide]
3 | 175 to 176 °C | COc1cc(NCc2ccccc2)ccc1C(N)=O [Example 85, 4-(benzylamino)-2-methoxybenzamide]

The remaining lines, values behind:

Row | SMILES | melting point
4 | NC(=O)c1ccc(OC2CCN(Cc3ccccc3)CC2)cc1 [Example 25, 4-[(1-benzylpiperidin-4-yl)oxy]benzamide] | 166 to 168 °C
5 | NC(=O)c1ccc(NC2CCN(Cc3ccccc3)CC2)cc1 [Example 10, 4-[(1-benzylpiperidin-4-yl)amino]benzamide] | 192 to 193 °C
6 | NC(=O)c1ccc(NC(=O)C2CCCN(Cc3ccccc3)C2)cc1 (centres unmarked) [Example 13, N-[4-(aminocarbonyl)phenyl]-1-benzylpiperidine-3-carboxamide] | 211 to 212 °C
7 | Cl.NC(=O)c1ccc(NC2CCNCC2)cc1 | 292 to 294 °C (dec.)

Molecular target: T1, Rho kinase (Bos taurus, UniProt Q28021)
T1 construct: Rho kinase was selectively immobilized from the bovine brain extract fraction; from tissue; host or cells: bovine brain gray matter extract, captured on an anti-ROKII peptide antibody plate
Test: Assay of the inhibition of phosphorylation by Rho kinase
Format: biochemical
Conditions: Rho kinase immobilized from bovine brain extract fraction on anti-Rho kinase antibody plate; 0.1 μM ATP ([γ-32P]ATP), histone (HF2A) substrate; room temperature, 4 hours
Experimental: Assay of the inhibition of phosphorylation by Rho kinase
A bovine brain extract fraction was prepared as follows. That is, a piece of gray matter was minced from bovine brain and suspended in a buffer solution for immunoprecipitation (10 mM tris(hydroxymethyl)aminomethane (Tris) (pH 7.5), 1% Triton X-100, 0.5% NP-40, 150 mM NaCl, 20 mM sodium fluoride, 1 mM ethylenediaminetetraacetic acid (EDTA), 1 mM ethylene glycol bis(β-aminoethyl ether)-N,N,N′,N′-tetraacetic acid (EGTA) and 0.2 mM phenylmethylsulfonyl fluoride (PMSF)) in two volumes of the gray matter. The tissue was homogenized by the use of a Potter type homogenizer made of polytetrafluoroethylene. After the homogenate was centrifuged at 20,000 g for 15 minutes, the supernatant was collected and then subjected to ultracentrifugation at 100,000 g for 60 minutes. The resulting supernatant was used as a bovine brain extract fraction.
An anti-Rho kinase antibody immobilized plate was prepared as follows. That is, a secondary antibody (anti-goat IgG (Fc) antibody) was diluted 300-fold with phosphate-buffered saline (PBS) (1 μl antibody/300 μl PBS), and 100 μl of the resulting dilution was added to each well of a 96-well ELISA plate. After coating at room temperature for 2 hours, the supernatant was removed. Thereafter, 100 μl of PBS was added and then the supernatant was removed (this washing operation was carried out twice). After the washing, 100 μl of a blocking buffer solution (0.05% Tween 20 and 0.25% bovine serum albumin (fatty acid free)/PBS) was added, followed by blocking at room temperature for 1 hour. After the blocking, each well was washed twice with 100 μl of the blocking buffer solution, and 100 μl of a primary antibody (anti-ROKII (Rho kinase) peptide antibody) diluted 200-fold (0.5 μl (0.1 μg)/100 μl) with PBS was added, followed by coating at room temperature for 2 hours. After the coating, each well was washed once with 100 μl of the blocking buffer solution. In addition, 100 μl of the blocking buffer solution was added to obtain an anti-Rho kinase antibody immobilized plate.
Using the aforesaid plate, Rho kinase was selectively immobilized from the bovine brain extract fraction, and phosphorylation by Rho kinase was assayed. To each well of the antibody-immobilized plate was added 100 μl of a bovine brain extract solution prepared so as to have a concentration of 1.5 mg/ml, and the reactions were incubated at 4° C. for 1 hour to immobilize Rho kinase on the plate. After completion of the reaction, the supernatant was removed and each well was washed three times with 100 μl of the buffer solution for immunoprecipitation. In addition, each well was washed three times with 100 μl of buffer solution A (50 mM Tris (pH 7.5), 10 mM MgCl2 and 150 mM NaCl). To each well of the plate freed from the supernatant was added 40 μl of the aforesaid buffer solution for reaction (50 mM Tris-HCl (pH 7.5), 2 mM EDTA and 10 mM MgCl2). Further, adenosine 5′-triphosphate (ATP) buffer (0.1 μM ATP (containing 6 nM [v-^32P]ATP) and 10 μg histone (HF2A)) containing each compound was prepared, and 10 μl of this solution was added to each well of the plate to initiate the reaction. The reactions were carried out at room temperature for 4 hours. The reaction was terminated by the addition of a phosphoric acid solution of a final concentration of 75 mM and 50 μM ATP. After completion of the reaction, 50 μl of the reaction solutions were spotted onto a phosphocellulose filter for Beta Plate 1205 (Wallac) only. After completion of the spot, the filter was washed with 150 ml of a 75 mM phosphoric acid solution for 10 minutes. This washing operation was repeated three times. After completion of the washing, the filter was dried and then wrapped in a cellophane bag, and 10 ml of a liquid scintillation cocktail was added. The amount of energy (β-ray radioactivity count) trapped in the filter was measured with Beta Plate 1205. […]

T1 sequence (Q28021 whole entry): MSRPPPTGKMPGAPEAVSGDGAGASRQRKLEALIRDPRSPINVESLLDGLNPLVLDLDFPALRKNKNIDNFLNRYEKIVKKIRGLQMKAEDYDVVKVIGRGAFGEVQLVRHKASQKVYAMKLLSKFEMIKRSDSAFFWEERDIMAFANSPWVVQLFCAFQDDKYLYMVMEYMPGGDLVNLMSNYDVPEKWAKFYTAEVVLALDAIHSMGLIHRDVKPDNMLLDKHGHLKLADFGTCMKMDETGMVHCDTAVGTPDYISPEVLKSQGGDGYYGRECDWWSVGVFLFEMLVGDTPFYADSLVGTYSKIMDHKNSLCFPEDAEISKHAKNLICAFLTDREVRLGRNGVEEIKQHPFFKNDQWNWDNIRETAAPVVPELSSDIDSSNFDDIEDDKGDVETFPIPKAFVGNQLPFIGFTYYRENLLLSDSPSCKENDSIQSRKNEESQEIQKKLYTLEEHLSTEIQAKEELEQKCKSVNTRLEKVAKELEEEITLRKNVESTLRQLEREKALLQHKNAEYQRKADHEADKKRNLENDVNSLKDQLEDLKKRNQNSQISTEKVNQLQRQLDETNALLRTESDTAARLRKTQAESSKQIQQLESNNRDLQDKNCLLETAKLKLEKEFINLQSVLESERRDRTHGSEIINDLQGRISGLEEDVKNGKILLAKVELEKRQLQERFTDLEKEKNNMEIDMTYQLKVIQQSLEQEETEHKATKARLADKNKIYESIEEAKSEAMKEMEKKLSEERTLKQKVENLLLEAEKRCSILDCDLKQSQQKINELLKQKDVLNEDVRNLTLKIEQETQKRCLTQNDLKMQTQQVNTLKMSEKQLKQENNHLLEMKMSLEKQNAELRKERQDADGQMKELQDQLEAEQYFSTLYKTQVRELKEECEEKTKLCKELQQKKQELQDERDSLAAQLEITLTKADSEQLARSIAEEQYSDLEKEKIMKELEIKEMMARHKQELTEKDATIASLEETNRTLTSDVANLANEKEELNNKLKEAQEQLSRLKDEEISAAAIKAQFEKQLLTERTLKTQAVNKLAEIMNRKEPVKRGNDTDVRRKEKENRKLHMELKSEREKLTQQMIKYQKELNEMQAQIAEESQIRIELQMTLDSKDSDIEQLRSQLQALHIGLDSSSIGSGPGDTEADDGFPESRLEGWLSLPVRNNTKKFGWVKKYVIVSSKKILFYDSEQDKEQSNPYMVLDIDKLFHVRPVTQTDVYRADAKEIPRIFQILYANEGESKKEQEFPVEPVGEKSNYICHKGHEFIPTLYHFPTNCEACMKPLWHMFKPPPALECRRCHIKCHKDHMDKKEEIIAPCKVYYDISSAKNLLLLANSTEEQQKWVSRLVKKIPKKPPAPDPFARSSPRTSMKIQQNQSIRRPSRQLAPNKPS

Row | IC50 [nM] | SMILES
8 | 24.4 | COc1cc(O[C@H]2CC[C@H](N)CC2)c(Cl)cc1C(N)=O [Example 159, 4-[(trans-4-aminocyclohexyl)-oxy]-5-chloro-2-methoxybenzamide]
9 | 28.4 | COc1cc(N[C@H]2CC[C@H](N)CC2)c(F)cc1C(N)=O [Example 158, 4-[(trans-4-aminocyclo-hexyl)amino]-5-fluoro-2-methoxybenzamide]
10 | 24.8 | NC(=O)c1cc(Br)c(N[C@H]2CC[C@H](N)CC2)cc1F [Example 163, 4-[trans-(4-aminocyclohexyl)-amino]-5-bromo-2-fluorobenzamide]

More lines, now with the values behind:

Row | SMILES | IC50 [nM]
11 | COc1cc(N[C@H]2CC[C@H](N)CC2)c(Cl)cc1C(N)=O [Example 113, 4-[(trans-4-aminocyclohexyl)amino]-5-chloro-2-methoxybenzamide] | 21.8
12 | NC(=O)c1cc(Cl)c(N[C@H]2CC[C@H](N)CC2)cc1F [Example 141, 4-[trans-(4-aminocyclohexyl)-amino]-5-chloro-2-fluorobenzamide] | 28.7
13 | NC(=O)c1cc(F)c(N[C@H]2CC[C@H](N)CC2)cc1F [Example 162, 4-[trans-(4-aminocyclohexyl)-amino]-2,5-difluorobenzamide] | 26.4
14 | NC(=O)c1ccc(NC2CCN(Cc3ccccc3)CC2)cc1 [Example 10, 4-[(1-benzylpiperidin-4-yl)amino]benzamide] | 2000
